Starred links: 1 amine or outer side, 2 acyl side, 3 side chain; linkers in the order of their positions; H or OH if unused. Positions of bridges follow the written chain, without caps; N, C: chain ends. Non-standard residues stand in square brackets, D forms with d. Residues, ends and D or L forms follow the SMILES beside them. *: point of attachment. hPhe(3-Cl-4-CF3) = N[C@@H](CCc1ccc(C(F)(F)F)c(Cl)c1)C(=O)O; X52 = CN([C@@H](Cc1ccc(C#N)nc1)C(=O)[*:2])[*:1]; NMeGly(cBu) = CN[C@H](C(=O)O)C1CCC1; NMeCha = CN[C@@H](CC1CCCCC1)C(=O)O; NMeChg = CN[C@H](C(=O)O)C1CCCCC1; X7 = O=C(CN(c1ccsc1)[*:1])[*:2]; NMeD = CN[C@@H](CC(=O)O)C(=O)O; NMeL = CN[C@@H](CC(C)C)C(=O)O; NMeA = CN[C@@H](C)C(=O)O; Piperidide = C1CCN(*)CC1; Ac5c = NC1(C(=O)O)CCCC1; Sar = CNCC(=O)O
Assays:
[1] = test system: Human pancreatic cancer cell line AsPC-1; test: Measurement of AsPC-1 cell growth inhibition (AsPC-1 CGI); type: cell-based; settings: 96 h
Outline: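 AsPC-1 cells in 15% FBS RPMI-1640 were exposed to test compound for 96 hours at 37° C, with CellTiter-Glo as endpoint.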

[2] = target: T1, Kras and SOS1 (biotin-tagged human Kras loaded with GDP, His-tagged human SOS1) (Homo sapiens, UniProt P01116, G12D); test: Protein-protein interaction inhibition between Kras and SOS1 (KrasGl2D-SOS PPI) using AlphaScreen; type: binding; settings: AlphaScreen; biotin-tagged human Kras loaded with GDP, His-tagged human SOS1; read-out: KRAS G12D-SOS PPI IC50
T1 construct: made in house; host or cells: E. coli (stated for Kras only)
T1 sequence (P01116 1-188 isoform P01116-2 G12D): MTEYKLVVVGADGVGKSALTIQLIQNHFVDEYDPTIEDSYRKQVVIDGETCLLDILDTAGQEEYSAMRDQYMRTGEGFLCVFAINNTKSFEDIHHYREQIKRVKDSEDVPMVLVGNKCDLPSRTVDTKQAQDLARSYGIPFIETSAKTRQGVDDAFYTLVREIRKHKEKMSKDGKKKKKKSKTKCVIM
Outline: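 Donor beads (nickel) hold His-SOS1; acceptor beads (streptavidin) hold biotin-Kras bound to GDP. Signal measured at 520-620 nm following 680 nm excitation.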

With `CC[C@H](C)[C@@H]1NC(=O)[C@H](C)N(C)C(=O)C[C@@H](C(=O)N2CCCCC2)N(C)C(=O)[C@H](C2CCC2)N(C)C(=O)C2(CCCC2)NC(=O)CN(c2ccsc2)C(=O)[C@H](CCc2ccc(C(F)(F)F)c(Cl)c2)NC(=O)CN(C)C(=O)[C@H](CC2CCCCC2)N(C)C(=O)CN(C)C(=O)CN(C)C1=O` [Compound 2149] ([NMeA]I[Sar][Sar][NMeCha][Sar][hPhe(3-Cl-4-CF3)][X7][Ac5c][NMeGly(cBu)][NMeD]-Piperidide; lactam N-11) the IC50 [1] was > 500 nM and the IC50 [2] was 4 nM.
For `CC[C@H](C)[C@@H]1NC(=O)[C@H](CC(C)C)N(C)C(=O)C[C@@H](C(=O)N2CCCCC2)N(C)C(=O)[C@H](C2CCCCC2)N(C)C(=O)C2(CCCC2)NC(=O)[C@H](Cc2ccc(C#N)nc2)N(C)C(=O)[C@H](CCc2ccc(C(F)(F)F)c(Cl)c2)NC(=O)CN(C)C(=O)[C@H](CC2CCCCC2)N(C)C(=O)CN(C)C(=O)CN(C)C1=O` [Compound 2169] ([NMeL]I[Sar][Sar][NMeCha][Sar][hPhe(3-Cl-4-CF3)][X52][Ac5c][NMeChg][NMeD]-Piperidide; lactam N-11), the IC50 [1] was > 500 nM and the IC50 [2] was 6.1 nM.

Source: patent US12371454B2, “Cyclic peptide compound having Kras inhibitory action” (priority 2019, dated 2025)
